Results reported in US7964624B1, “Inhibitors of serine proteases” (priority 2005, dated 2011).

These compounds were tested against T1, HCV NS3 protease domain (Hepatitis C virus genotype 1b, UniProt Q9WMX2) (assay: biochemical). Conditions: Enzyme Assay 1 (HCV NS3 Protease Domain Peptide Cleavage Assay) activity, apparent Ki class.
T1 construct: The first 181 amino acids of NS3 (residues 1027-1207 of the viral polyprotein); hexa-histidine (C); made in house; host or cells: E. coli BL21/DE3 pLysS
T1 sequence (Q9WMX2 1027-1207, other chains not shown): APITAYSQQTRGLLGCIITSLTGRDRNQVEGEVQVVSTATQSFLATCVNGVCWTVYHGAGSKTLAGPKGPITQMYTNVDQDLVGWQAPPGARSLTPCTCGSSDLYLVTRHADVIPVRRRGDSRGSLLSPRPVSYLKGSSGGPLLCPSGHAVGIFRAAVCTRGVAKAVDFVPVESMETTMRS

Row | Compound | Ki [nM]
1 | CCC[C@H](NC(=O)[C@@H]1C[C@]2(CC(c3cccc(Cl)c3)=NO2)CN1C(=O)[C@@H](NC(=O)Cc1cc2c(cc1Cl)OCO2)C(C)(C)C)C(=O)C(=O)NC1CC1 [Compound 449] | 100 to 500
2 | CCC[C@H](NC(=O)[C@@H]1C[C@]2(CC(c3ccc4c(c3)OCO4)=NO2)CN1C(=O)[C@@H](NC(=O)[C@@H](NC(=O)c1cnccn1)C(C)(C)C)C(C)(C)C)C(=O)C(=O)NC1CC1 [Compound 450] | < 100
3 | CCC[C@H](NC(=O)[C@@H]1C[C@]2(CC(c3ccc(F)c(C(F)(F)F)c3)=NO2)CN1C(=O)O[C@H]1CCOC1)C(=O)C(=O)NC1CC1 [Compound 451] | > 500
4 | C#CCCC(NC(=O)[C@@H]1C[C@]2(CC(c3cccc(Cl)c3)=NO2)CN1C(=O)[C@@H](NC(=O)CC1CCCCC1)C(C)(C)C)C(=O)C(=O)NC1CC1 (some centres unmarked) [Compound 453] | 100 to 500
5 | CCC[C@H](NC(=O)[C@@H]1C[C@]2(CC(c3cccc(Cl)c3)=NO2)CN1C(=O)[C@@H](NC(=O)CSc1cccc2cccnc12)C(C)(C)C)C(=O)C(=O)NC1CC1 [Compound 454] | 100 to 500
6 | CCC[C@H](NC(=O)[C@@H]1C[C@@]2(CC(c3cc(F)c(F)c(F)c3)=NO2)CN1C(=O)[C@@H](NC(=O)O[C@H]1CCOC1)C(C)(C)C)C(=O)C(=O)NC1CC1 [Compound 455] | > 500
7 | CCC[C@H](NC(=O)[C@@H]1C[C@]2(CC(c3ccc4c(c3)OCCO4)=NO2)CN1C(=O)[C@@H](NC(=O)O[C@H]1CCOC1)C(C)(C)C)C(=O)C(=O)NC1CC1 [Compound 456] | 100 to 500
8 | CCC[C@H](NC(=O)[C@@H]1C[C@]2(CC(c3cccc(Cl)c3)=NO2)CN1C(=O)[C@@H](NC(=O)OCCc1ccccc1)C(C)(C)C)C(=O)C(=O)NC1CC1 [Compound 463] | > 500
9 | CCC[C@H](NC(=O)[C@@H]1C[C@]2(CC(c3ccc4c(c3)OCO4)=NO2)CN1C(=O)c1ccc[nH]1)C(=O)C(=O)NC1CC1 [Compound 464] | > 500
10 | CCC[C@H](NC(=O)[C@@H]1C[C@]2(CC(c3cccc(Cl)c3)=NO2)CN1C(=O)[C@@H](NC(=O)OCc1ccc(C)cc1)C(C)(C)C)C(=O)C(=O)NC1CC1 [Compound 471] | 100 to 500
11 | CCC[C@H](NC(=O)[C@@H]1C[C@]2(CC(c3ccco3)=NO2)CN1C(=O)[C@@H](NC(=O)OC1CCOC1)C(C)(C)C)C(=O)C(=O)NC1CC1 (some centres unmarked) [Compound 472] | > 500
12 | CCC[C@H](NC(=O)[C@@H]1C[C@]2(CC(c3cccc(Cl)c3)=NO2)CN1C(=O)[C@@H](NC(=O)C(C)Cn1ccc(C)n1)C(C)(C)C)C(=O)C(=O)NC1CC1 (some centres unmarked) [Compound 474] | > 500
13 | CCC[C@H](NC(=O)[C@@H]1C[C@]2(CC(c3cccc(Cl)c3)=NO2)CN1C(=O)[C@@H](NC(=O)CC(C)(O)C(F)(F)F)C(C)(C)C)C(=O)C(=O)NC1CC1 (some centres unmarked) [Compound 475] | 100 to 500
14 | CCC[C@H](NC(=O)[C@@H]1C[C@]2(CC(c3cccc(Cl)c3)=NO2)CN1C(=O)[C@@H](NC(=O)N[C@H](COC)C(C)(C)C)C(C)(C)C)C(=O)C(=O)NC1CC1 [Compound 477] | < 100
15 | CCC[C@H](NC(=O)[C@@H]1C[C@]2(CC(c3ccc(Cl)s3)=NO2)CN1C(=O)[C@@H](NC(=O)CC1CCCCC1)C(C)(C)C)C(=O)C(=O)NC1CC1 [Compound 478] | 100 to 500
16 | CCC[C@H](NC(=O)[C@@H]1C[C@]2(CC(c3cccc(C(=O)O)c3)=NO2)CN1C(=O)[C@@H](NC(=O)O[C@H]1CCOC1)C(C)(C)C)C(=O)C(=O)NC1CC1 [Compound 481] | > 500
17 | CCC[C@H](NC(=O)[C@@H]1C[C@]2(CC(c3cccc(Cl)c3)=NO2)CN1C(=O)[C@@H](NC(=O)CCC(=O)O)C(C)(C)C)C(=O)C(=O)NC1CC1 [Compound 484] | 100 to 500
18 | CCC[C@H](NC(=O)[C@@H]1C[C@]2(CC(c3cccc(Cl)c3)=NO2)CN1C(=O)[C@@H](NC(=O)CC1CC(=O)c2ccc(OC)cc21)C(C)(C)C)C(=O)C(=O)NC1CC1 (some centres unmarked) [Compound 487] | 100 to 500
19 | CCC[C@H](NC(=O)[C@@H]1C[C@]2(CC(c3ccc(Cl)c(C)c3)=NO2)CN1C(=O)[C@@H](NC(=O)CC1CCOCC1)C(C)(C)C)C(=O)C(=O)NC1CC1 [Compound 490] | 100 to 500
20 | CCC[C@H](NC(=O)[C@@H]1C[C@]2(CC(c3cccc(Cl)c3)=NO2)CN1C(=O)[C@@H](NC(=O)NC(C)(C)C)C(C)(C)C)C(=O)C(=O)NC1CC1 [Compound 492] | < 100
21 | CCC[C@H](NC(=O)[C@@H]1C[C@]2(CC(c3cc(Cl)c(OC)c(OC)c3)=NO2)CN1C(=O)[C@@H](NC(=O)CC1CCCCC1)C(C)(C)C)C(=O)C(=O)NC1CC1 [Compound 494] | < 100
22 | CCC[C@H](NC(=O)[C@@H]1C[C@]2(CC(c3nn(C)cc3Cl)=NO2)CN1C(=O)[C@@H](NC(=O)CC1CCCCC1)C(C)(C)C)C(=O)C(=O)NC1CC1 [Compound 495] | > 500
23 | CCC[C@H](NC(=O)[C@@H]1C[C@]2(CC(c3cccc(Cl)c3)=NO2)CN1C(=O)[C@@H](NC(=O)NCc1cccnc1)C(C)(C)C)C(=O)C(=O)NC1CC1 [Compound 497] | 100 to 500
24 | CCC[C@H](NC(=O)[C@@H]1C[C@]2(CC(c3cc(F)cc(C(F)(F)F)c3)=NO2)CN1C(=O)[C@@H](NC(=O)O[C@H]1CCOC1)C(C)(C)C)C(=O)C(=O)NC1CC1 [Compound 498] | 100 to 500

Row | Compound | Ki [nM]
25 | CCC[C@H](NC(=O)[C@@H]1C[C@]2(CC(c3cccc(Cl)c3)=NO2)CN1C(=O)[C@@H](NC(=O)[C@H]1CC[C@H](OC)CC1)C(C)(C)C)C(=O)C(=O)NC1CC1 [Compound 503] | 100 to 500
26 | CCC[C@H](NC(=O)[C@@H]1C[C@]2(CC(c3cccc(Cl)c3)=NO2)CN1C(=O)[C@@H](NC(=O)CCc1cccnc1)C(C)(C)C)C(=O)C(=O)NC1CC1 [Compound 504] | 100 to 500
27 | CCC[C@H](NC(=O)[C@@H]1C[C@]2(CC(c3cccc(Cl)c3)=NO2)CN1C(=O)[C@@H](NC(=O)CCC1NC(=O)NC1=O)C(C)(C)C)C(=O)C(=O)NC1CC1 (some centres unmarked) [Compound 505] | 100 to 500
28 | CCC[C@H](NC(=O)[C@@H]1C[C@]2(CC(c3cccc(Cl)c3)=NO2)CN1C(=O)[C@@H](NC(=O)Cn1ccc2ncccc21)C(C)(C)C)C(=O)C(=O)NC1CC1 [Compound 506] | > 500
29 | CCC[C@H](NC(=O)[C@@H]1C[C@@]2(CC(c3cccc(C(F)(F)F)c3)=NO2)CN1C(=O)[C@@H](NC(=O)O[C@H]1CCOC1)C(C)(C)C)C(=O)C(=O)NC1CC1 [Compound 509] | > 500
30 | CCC[C@H](NC(=O)[C@@H]1C[C@]2(CC(c3ccc([N+](=O)[O-])cc3)=NO2)CN1C(=O)[C@@H](NC(=O)O[C@H]1CCOC1)C(C)(C)C)C(=O)C(=O)NC1CC1 [Compound 511] | 100 to 500
31 | CCC[C@H](NC(=O)[C@@H]1C[C@]2(CC(c3ccccc3)=NO2)CN1C(=O)OCC1c2ccccc2-c2ccccc21)C(=O)C(=O)NC1CC1 [Compound 514] | > 500
32 | CCC[C@H](NC(=O)[C@@H]1C[C@]2(CC(c3cccc(Cl)c3)=NO2)CN1C(=O)[C@@H](NC(=O)OC1CCCOC1)C(C)(C)C)C(=O)C(=O)NC1CC1 (some centres unmarked) [Compound 515] | 100 to 500
33 | CCC[C@H](NC(=O)[C@@H]1C[C@]2(CC(c3ccc(OC)cc3OC)=NO2)CN1C(=O)[C@@H](NC(=O)O[C@H]1CCOC1)C(C)(C)C)C(=O)C(=O)NC1CC1 [Compound 516] | > 500
34 | CCC[C@H](NC(=O)[C@@H]1C[C@]2(CC(c3cccc(Cl)c3)=NO2)CN1C(=O)[C@@H](NC(=O)[C@@H]1CCC(=O)N1Cc1cccc(C)c1)C(C)(C)C)C(=O)C(=O)NC1CC1 [Compound 518] | < 100
35 | CCC[C@H](NC(=O)[C@@H]1C[C@]2(CC(c3cc(C)cc(C)c3)=NO2)CN1C(=O)[C@@H](NC(=O)O[C@H]1CCOC1)C(C)(C)C)C(=O)C(=O)NC1CC1 [Compound 519] | 100 to 500
36 | CCC[C@H](NC(=O)[C@@H]1C[C@]2(CC(c3ccccc3)=NO2)CN1C(=O)[C@@H](NC(=O)OCc1ccccc1)C(C)(C)C)C(=O)C(=O)NC1CC1 [Compound 520] | > 500
37 | CCC[C@H](NC(=O)[C@@H]1C[C@]2(CC(c3cccc(Cl)c3)=NO2)CN1C(=O)[C@@H](NC(=O)C1CCOCC1)C(C)(C)C)C(=O)C(=O)NC1CC1 [Compound 523] | 100 to 500
38 | CCC[C@H](NC(=O)[C@@H]1C[C@]2(CC(c3ccc(OC(F)(F)F)cc3)=NO2)CN1C(=O)O[C@H]1CCOC1)C(=O)C(=O)NC1CC1 [Compound 524] | > 500
39 | CCC[C@H](NC(=O)[C@@H]1C[C@]2(CC(c3cccc(OC)c3)=NO2)CN1C(=O)[C@@H](NC(=O)CC1CCOCC1)C(C)(C)C)C(=O)C(=O)NC1CC1 [Compound 525] | > 500
40 | CCC[C@H](NC(=O)[C@@H]1C[C@]2(CC(c3cccc(Cl)c3)=NO2)CN1C(=O)[C@@H](NC(=O)OCc1ccccc1)C(C)(C)C)C(=O)C(=O)NC1CC1 [Compound 526] | 100 to 500
41 | CCC[C@H](NC(=O)[C@@H]1C[C@]2(CC(c3ccc4c(c3)OCO4)=NO2)CN1C(=O)[C@@H](NC(=O)O[C@H]1CCOC1)C(C)(C)C)C(=O)C(=O)NC1CC1 [Compound 527] | 100 to 500
42 | CCC[C@H](NC(=O)[C@@H]1C[C@]2(CC(c3cccc(Cl)c3)=NO2)CN1C(=O)[C@@H](NC(=O)CCn1ncc2ccccc21)C(C)(C)C)C(=O)C(=O)NC1CC1 [Compound 528] | 100 to 500
43 | CCC[C@H](NC(=O)[C@@H]1C[C@]2(CC(c3ccc(O)cc3)=NO2)CN1C(=O)[C@@H](NC(=O)O[C@H]1CCOC1)C(C)(C)C)C(=O)C(=O)NC1CC1 [Compound 530] | > 500
44 | CCC[C@H](NC(=O)[C@@H]1C[C@]2(CC(c3cccc(Cl)c3)=NO2)CN1C(=O)[C@@H](NC(=O)CC(C)C)C(C)(C)C)C(=O)C(=O)NC1CC1 [Compound 532] | > 500
45 | CCC[C@H](NC(=O)[C@@H]1C[C@]2(CC(c3ccc(F)cc3)=NO2)CN1C(=O)OCC1c2ccccc2-c2ccccc21)C(=O)C(=O)NC1CC1 [Compound 533] | > 500
46 | CCC[C@H](NC(=O)[C@@H]1C[C@]2(CC(C(=O)c3ccccc3)=NO2)CN1C(=O)[C@@H](NC(=O)O[C@H]1CCOC1)C(C)(C)C)C(=O)C(=O)NC1CC1 [Compound 535] | 100 to 500
47 | CCC[C@H](NC(=O)[C@@H]1C[C@]2(CC(c3ccc4c(c3)OCO4)=NO2)CN1C(=O)[C@@H](NS(=O)(=O)c1cccc2ccccc12)C(C)(C)C)C(=O)C(=O)NC1CC1 [Compound 536] | > 500
